tested on: senescent HEPG2 cells; assay: Senescence assay: viability of senescent HEPG2 cells; assay type: cell-based; settings: Homo sapiens, 24-72 hours incubation, viability by CellTiter-Glo or XTT, read-out: Absolute IC50 average HEPG2_SEN IC50
Procedure: Cells were maintained in DMEM media (high glucose, 4 mM L-glutamine, no sodium pyruvate) supplemented with 10% fetal bovine serum in a humidified incubator at 37° C. with 5% carbon dioxide. Senescence was induced via treatment with a sublethal concentration of chemotherapy (bleomycin, gemcitabine, doxorubicin, 5-fluorouridine), followed by a rest period without chemotherapy similarly to what is reported by others in the field (e.g., Aoshiba et al., 2003 Eur Respir J 22:436-443). Senescence was qualified by low EdU (5-ethynyl-2′-deoxyuridine) incorporation and high SA-β-Gal (senescence-associated beta-galactosidase) staining compared to proliferating untreated cells. Senescent cells were plated into 96-well plates at a density of 5-15,000 cells/well. The next day, compounds were added in duplicate across ten different concentrations spanning roughly four Log10 units. Cells were incubated with the compounds for 24-72 hours, at which point viability was quantified using CellTiter-Glo (Promega) or XTT (R&D Systems). The viability for treated cells was determined relative to untreated control cells. The log of the compound concentration vs. normalized mean viability was fit to a four parameters Hill function with variable slope. The bottom was constrained to be greater than zero. The X mean value for Y=50 was interpolated to determine the absolute IC50. The results in Table 2 indicate that many of the compounds are active in cells and can induce a dose dependent decrease in the viability of senescent HEPG2 and A549 cells.

Row | Structure (SMILES) | IC50 [nM]
1 | C#CC(F)(F)[C@]1(O)CC[C@H]2[C@@H]3CCC4=C/C(=N\OCCOC)CCC4=C3[C@@H](c3ccc(C4CC4)cc3)C[C@@]21C [Compound 2, (8S,11R,13S,14S,17S,Z)-11-(4-cyclopropylphenyl)-17-(1,1-difluoroprop-2-yn-1-yl)-17-hydroxy-13-methyl-1,2,6,7,8,11,12,13,14,15,16,17-dodecahydro-3H-cyclopenta[a]phenanthren-3-one O-(2-methoxyethyl)oxime] | 10 to 100
2 | C#CC(F)(F)[C@]1(O)CC[C@H]2[C@@H]3CCC4=C/C(=N/OCCOC)CCC4=C3[C@@H](c3ccc(C4CC4)cc3)C[C@@]21C [Compound 3, (8S,11R,13S,14S,17S,E)-11-(4-cyclopropylphenyl)-17-(1,1-difluoroprop-2-yn-1-yl)-17-hydroxy-13-methyl-1,2,6,7,8,11,12,13,14,15,16,17-dodecahydro-3H-cyclopenta[a]phenanthren-3-one O-(2-methoxyethyl)oxime] | 10 to 100
3 | C#CC(F)(F)[C@]1(O)CC[C@H]2[C@@H]3CCC4=C/C(=N/O[C@H]5C[C@H](O)[C@H](O)[C@H](C)O5)CCC4=C3[C@H](c3ccc(C4CC4)cc3)C[C@@]21C [Compound 5, (8S,11S,13S,14S,17S,E)-11-(4-cyclopropylphenyl)-17-(1,1-difluoroprop-2-yn-1-yl)-17-hydroxy-13-methyl-1,2,6,7,8,11,12,13,14,15,16,17-dodecahydro-3H-cyclopenta[a]phenanthren-3-one O-((2S,4S,5S,6S)-4,5-dihydroxy-6-methyltetrahydro-2H-pyran-2-yl) oxime] | 10 to 100
4 | C#CC(F)(F)[C@]1(O)CC[C@H]2[C@@H]3CCC4=C/C(=N/OCCOCCOCCOC)CCC4=C3[C@@H](c3ccc(C4CC4)cc3)C[C@@]21C [Compound 15, (8S,11R,13S,14S,17S,E)-11-(4-cyclopropylphenyl)-17-(1,1-difluoroprop-2-yn-1-yl)-17-hydroxy-13-methyl-1,2,6,7,8,11,12,13,14,15,16,17-dodecahydro-3H-cyclopenta[a]phenanthren-3-one O-(2-(2-(2-methoxyethoxy)ethoxy)ethyl)oxime] | 10 to 100
5 | C#CC(F)(F)[C@]1(O)CC[C@H]2[C@@H]3CCC4=C/C(=N/N)CCC4=C3[C@H](c3ccc(C4CC4)cc3)C[C@@]21C [Compound 27, (8S,11S,13S,14S,17S,E)-11-(4-cyclopropylphenyl)-17-(1,1-difluoroprop-2-yn-1-yl)-3-hydrazineylidene-13-methyl-2,3,6,7,8,11,12,13,14,15,16,17-dodecahydro-1H-cyclopenta[a]phenanthren-17-ol] | 10 to 100
6 | C#CC(F)(F)[C@]1(O)CC[C@H]2[C@@H]3CCC4=C/C(=N/NC(=O)O[C@@H]5O[C@H](COC(C)=O)[C@H](OC(C)=O)[C@H](OC(C)=O)[C@H]5OC(C)=O)CCC4=C3[C@H](c3ccc(C4CC4)cc3)C[C@@]21C [Compound 28, (2R,3S,4S,5R,6S)-2-(acetoxymethyl)-6-((2-((8S,11S,13S,14S,17S,E)-11-(4-cyclopropylphenyl)-17-(1,1-difluoroprop-2-yn-1-yl)-17-hydroxy-13-methyl-1,2,6,7,8,11,12,13,14,15,16,17-dodecahydro-3H-cyclopenta[a]phenanthren-3-ylidene)hydrazine-1-carbonyl)oxy)tetrahydro-2H-pyran-3,4,5-triyl triacetate] | 10 to 100
7 | C#CC(F)(F)[C@]1(O)CC[C@H]2[C@@H]3CCC4=C/C(=N/NC(=O)O[C@@H]5O[C@@H](C)[C@@H](O)[C@@H](O)[C@@H]5O)CCC4=C3[C@H](c3ccc(C4CC4)cc3)C[C@@]21C [Compound 31, (2S,3S,4R,5S,6S)-3,4,5-trihydroxy-6-methyltetrahydro-2H-pyran-2-yl (E)-2-((8S,11S,13S,14S,17S)-11-(4-cyclopropylphenyl)-17-(1,1-difluoroprop-2-yn-1-yl)-17-hydroxy-13-methyl-1,2,6,7,8,11,12,13,14,15,16,17-dodecahydro-3H-cyclopenta[a]phenanthren-3-ylidene)hydrazine-1-carboxylate] | 10 to 100
8 | C#CC(F)(F)[C@]1(O)CC[C@H]2[C@@H]3CCC4=C/C(=N/NC(=O)COC)CCC4=C3[C@H](c3ccc(C4CC4)cc3)C[C@@]21C [Compound 36, N′-((8S,11S,13S,14S,17S,E)-11-(4-cyclopropylphenyl)-17-(1,1-difluoroprop-2-yn-1-yl)-17-hydroxy-13-methyl-1,2,6,7,8,11,12,13,14,15,16,17-dodecahydro-3H-cyclopenta[a]phenanthren-3-ylidene)-2-methoxyacetohydrazide] | 0.1 to 10
9 | C#CC(F)(F)[C@]1(O)CC[C@H]2[C@@H]3CCC4=C/C(=N/NC(=O)CO)CCC4=C3[C@H](c3ccc(C4CC4)cc3)C[C@@]21C [Compound 37, N′-((8S,11S,13S,14S,17S,E)-11-(4-cyclopropylphenyl)-17-(1,1-difluoroprop-2-yn-1-yl)-17-hydroxy-13-methyl-1,2,6,7,8,11,12,13,14,15,16,17-dodecahydro-3H-cyclopenta[a]phenanthren-3-ylidene)-2-hydroxyacetohydrazide] | 0.1 to 10

Second part, the compound after the results:

Row | IC50 [nM] | Structure (SMILES)
10 | 0.1 to 10 | C#CC(F)(F)[C@]1(O)CC[C@H]2[C@@H]3CCC4=C/C(=N\O[C@H]5C[C@H](O)[C@H](O)[C@H](C)O5)CCC4=C3[C@H](c3ccc(C4CC4)cc3)C[C@@]21C [Compound 6, (8S,11S,13S,14S,17S,Z)-11-(4-cyclopropylphenyl)-17-(1,1-difluoroprop-2-yn-1-yl)-17-hydroxy-13-methyl-1,2,6,7,8,11,12,13,14,15,16,17-dodecahydro-3H-cyclopenta[a]phenanthren-3-one O-((2S,4S,5S,6S)-4,5-dihydroxy-6-methyltetrahydro-2H-pyran-2-yl) oxime]
11 | 0.1 to 10 | C#CC(F)(F)[C@]1(O)CC[C@H]2[C@@H]3CCC4=C/C(=N\OCCOCCO)CCC4=C3[C@@H](c3ccc(C4CC4)cc3)C[C@@]21C [Compound 11, (8S,11R,13S,14S,17S,Z)-11-(4-cyclopropylphenyl)-17-(1,1-difluoroprop-2-yn-1-yl)-17-hydroxy-13-methyl-1,2,6,7,8,11,12,13,14,15,16,17-dodecahydro-3H-cyclopenta[a]phenanthren-3-one O-(2-(2-hydroxyethoxy)ethyl)oxime]
12 | 0.1 to 10 | C#CC(F)(F)[C@]1(O)CC[C@H]2[C@@H]3CCC4=C/C(=N/OCCOCCO)CCC4=C3[C@@H](c3ccc(C4CC4)cc3)C[C@@]21C [Compound 12, (8S,11R,13S,14S,17S,E)-11-(4-cyclopropylphenyl)-17-(1,1-difluoroprop-2-yn-1-yl)-17-hydroxy-13-methyl-1,2,6,7,8,11,12,13,14,15,16,17-dodecahydro-3H-cyclopenta[a]phenanthren-3-one O-(2-(2-hydroxyethoxy)ethyl)oxime]
13 | 0.1 to 10 | C#CC(F)(F)[C@]1(O)CC[C@H]2[C@@H]3CCC4=C/C(=N\OCCOCCOCCOC)CCC4=C3[C@@H](c3ccc(C4CC4)cc3)C[C@@]21C [Compound 14, (8S,11R,13S,14S,17S,Z)-11-(4-cyclopropylphenyl)-17-(1,1-difluoroprop-2-yn-1-yl)-17-hydroxy-13-methyl-1,2,6,7,8,11,12,13,14,15,16,17-dodecahydro-3H-cyclopenta[a]phenanthren-3-one O-(2-(2-(2-methoxyethoxy)ethoxy)ethyl)oxime]
14 | 0.1 to 10 | C#CC(F)(F)[C@]1(O)CC[C@H]2[C@@H]3CCC4=C/C(=N/O[C@@H]5O[C@@H](C)[C@@H](O)[C@@H](O)[C@@H]5O)CCC4=C3[C@@H](c3ccc(C4CC4)cc3)C[C@@]21C [Compound 20, (8S,11R,13S,14S,17S,E)-11-(4-cyclopropylphenyl)-17-(1,1-difluoroprop-2-yn-1-yl)-17-hydroxy-13-methyl-1,2,6,7,8,11,12,13,14,15,16,17-dodecahydro-3H-cyclopenta[a]phenanthren-3-one O-((2S,3S,4R,5S,6S)-3,4,5-trihydroxy-6-methyltetrahydro-2H-pyran-2-yl) oxime]
15 | 0.1 to 10 | C#CC(F)(F)[C@]1(O)CC[C@H]2[C@@H]3CCC4=C/C(=N/NC(=O)O[C@@H]5O[C@@H](C)[C@@H](OC(C)=O)[C@@H](OC(C)=O)[C@@H]5OC(C)=O)CCC4=C3[C@H](c3ccc(C4CC4)cc3)C[C@@]21C [Compound 30, (2S,3S,4R,5R,6S)-2-((2-((8S,11S,13S,14S,17S,E)-11-(4-cyclopropylphenyl)-17-(1,1-difluoroprop-2-yn-1-yl)-17-hydroxy-13-methyl-1,2,6,7,8,11,12,13,14,15,16,17-dodecahydro-3H-cyclopenta[a]phenanthren-3-ylidene)hydrazine-1-carbonyl)oxy)-6-methyltetrahydro-2H-pyran-3,4,5-triyl triacetate]
16 | 0.1 to 10 | C#CC(F)(F)[C@]1(O)CC[C@H]2[C@@H]3CCC4=C/C(=N/NC(=O)CN)CCC4=C3[C@H](c3ccc(C4CC4)cc3)C[C@@]21C [Compound 35, 2-amino-N′-((8S,11S,13S,14S,17S,E)-11-(4-cyclopropylphenyl)-17-(1,1-difluoroprop-2-yn-1-yl)-17-hydroxy-13-methyl-1,2,6,7,8,11,12,13,14,15,16,17-dodecahydro-3H-cyclopenta[a]phenanthren-3-ylidene)acetohydrazide]
